# Measured values: PMC10088252
# Experiment: Plasma PK from sparse data, population PK analysis without PK modeling
# Type: in vivo, human
# Conditions: 28 days
# Method: A total of 21 patients in Part A were included in PKAS. […] The mean T1/2 of M1 ranged from 19.8 h to 21.8 h. For M2-2, its mean T1/2 was not able to estimate in the 450 mg QD and 600 mg QD cohorts, and 21.3 h in the 300 mg QD cohort. The MP ratio calculated based on AUCtau ranged from 6.0 to 9.1 for M1, and ranged from 4.1 to 5.7 for M2-2.
structure (smiles),measurement,setting,value
O=C(Nc1ccc(Oc2ccnc3c2CCN3)c(F)c1)c1c[nH]cc(-c2ccc(F)cc2)c1=O,"AUCtau, mean (SD)",300 mg QD (n=4),7420.0 (3120.0) h×ng/mL
same,"CLss/F, mean (SD)",300 mg QD (n=4),46.2 (18.7) L/h
same,"Cmax,ss, mean (SD)",300 mg QD (n=4),601.0 (189.0) ng/mL
same,"Cmin,ss, mean (SD)",300 mg QD (n=4),89.1 (56.3) ng/mL
same,"Ctrough, mean (SD)",300 mg QD (n=4),94.1 (79.0) ng/mL
same,"T1/2, mean (SD)",300 mg QD (n=4),9.1 (1.7) h
same,"Tmax,ss, mean (SD)",300 mg QD (n=4),4.0 (2.0) h
same,"Vz,ss/F, mean (SD)",300 mg QD (n=4),685.0 (196.0) L
same,"AUCtau, mean (SD)",450 mg QD (n=5),6350.0 (2710.0) h×ng/mL
same,"CLss/F, mean (SD)",450 mg QD (n=5),77.9 (33.2) L/h
same,"Cmax,ss, mean (SD)",450 mg QD (n=5),470.0 (83.3) ng/mL
same,"Cmin,ss, mean (SD)",450 mg QD (n=5),151.0 (77.5) ng/mL
same,"Ctrough, mean (SD)",450 mg QD (n=5),167.0 (100.5) ng/mL
same,"T1/2, mean (SD)",450 mg QD (n=5),10.3 (NE) h
same,"Tmax,ss, mean (SD)",450 mg QD (n=5),5.1 (2.0) h
same,"Vz,ss/F, mean (SD)",450 mg QD (n=5),1500.0 (NE) L
same,"AUCtau, mean (SD)",600 mg QD (n=2),6980.0 (NE) h×ng/mL
same,"CLss/F, mean (SD)",600 mg QD (n=2),86.0 (NE) L/h
same,"Cmax,ss, mean (SD)",600 mg QD (n=2),758.0 (NE) ng/mL
same,"Cmin,ss, mean (SD)",600 mg QD (n=2),80.3 (NE) ng/mL
same,"Ctrough, mean (SD)",600 mg QD (n=2),201.1 (166.4) ng/mL
same,"T1/2, mean (SD)",600 mg QD (n=2),9.6 (NE) h
same,"Tmax,ss, mean (SD)",600 mg QD (n=2),3.0 (NE) h
same,"Vz,ss/F, mean (SD)",600 mg QD (n=2),1180.0 (NE) L
